# Test results as given in article PMC11374660, “The novel family of Warbicin® compounds inhibits glucose uptake both in yeast and human cells and restrains cancer cell proliferation” (Frontiers in Oncology, 2024).
# Tests used:
# [1] = system: A549 lung adenocarcinoma cells; assay: Glucose consumption and lactate production over 8 h, A549; type: cell-based, human; settings: A549, 25 µM, 1 mM glucose
# Experimental: The influence of WBC compounds on glucose consumption over a longer time period was studied in the A549 adenocarcinoma and KMS-12-PE multiple myeloma cell lines. As such, different parameters needed to be optimized depending on whether cells were adherent or in suspension. As such, A549 cells were incubated at 125,000 cells/well in a 24-well plate in 300 µL RPMI medium for 8 h. For the KMS-12-PE cell line, 100,000 cells/well were incubated in 100 µL RPMI medium in a 96-well plate for 8 h. Medium was collected, spun down and HPLC-analyzed for measuring glucose and lactate levels. Metabolite levels were corrected for cell number, which always varied little over the span of 8 h. For every condition, at least 4 technical repeats were included.
# female NMRI-nu mice = assay: In vivo toxicity and tolerability in mice; settings: for abnormalities / toxic effects in liver and other organs at autopsy: daily i.p., toxic effects at 20 mg/kg WBC-15C and at 20 and 10 mg/kg WBC-11C, not at lower doses; for loss in body weight: daily intraperitoneal injection, 5, 10 and 20 mg/kg; for AST/ALT ratio vs vehicle: sera after 20 days, 5, 10, 20 mg/kg daily i.p.; for blood glucose level vs vehicle: sera post-mortem after 20 days, 5, 10, 20 mg/kg daily i.p.
# Experimental: Warbicin ® in vivo toxicity and tolerability was examined by subjecting female NMRI-nu mice (12 weeks old) to daily intraperitoneal injection of either WBC-A, WBC-15C, WBC-4C or WBC-11C. Compounds were dosed at either 5 mg/kg, 10 mg/kg or 20 mg/kg over a period of 20 days. Three mice were used per condition. To evaluate toxicity, change in body weight was registered daily. As a humane endpoint, mice that lost more than 20% of their original body weight were prematurely sacrificed. In addition, liver function was examined by measuring the ratio of the AST to ALT enzyme activities (AbCam ab105135, ab105134) in sera samples collected at the end of the experiment. Furthermore, the blood glucose level in mice sera was determined using the colorimetric GOD-PAP method. Due to their considerable hydrophobicity, the compounds were dissolved in a sterilized 1xPBS, 5% DMSO and 5% Tween-80 solution until a homogenous suspension was obtained that could be administered in a reproducible way.
# yeast Hxt7 = target: T1, yeast Hxt7 (Saccharomyces cerevisiae, UniProt P39004); assay: Glucose uptake by Hxt7 expressed in yeast RE700A hxt^0 gal2Δ; type: cell-based, S. cerevisiae; settings: 25 µM, hxt^0 gal2Δ strain
# T1 construct: expressed in transfected cells; host or cells: S. cerevisiae RE700A hxt0 gal2Δ (A7) or EBY.VW4000 hxt0 erg4Δ (A9) transformed with pHXT7
# Experimental: Cells of S. cerevisiae were either grown in minimal or rich medium. For minimal medium, cells were grown in Complete Synthetic medium (MP biomedicals) containing 0.5% (w/v) ammonium sulphate (Sigma-Aldrich), 0.17% (w/v) yeast nitrogen base without amino acids and without ammonium sulphate, supplemented with 100 mg/L adenine. In the case of auxotrophic selection, the appropriate composition of essential amino acids (MP Biomedicals) was chosen. For liquid medium, pH was adjusted to 5.5 and for solid medium (2% agar) to 6.5 with KOH. For rich medium, cells were grown on YP medium (1% w/v yeast extract, 2% w/v bacteriological peptone), supplemented with 100 mg/L adenine. Cells of the EBY.VW4000 hxt^0 strain expressing a single HXT carrier or GLUT isoform were (pre)grown in YP medium with 58 mM maltose (which is taken up by its own dedicated maltose transporter). S. cerevisiae cells were always grown at 30°C. Liquid cultures were shaken at 200 rpm.
# Zero-trans uptake of radioactively labeled [U-^14C]glucose, [U-^14C]fructose or [U-^14C]galactose by S. cerevisiae cells was determined in accordance with previous studies ([45], [75]). Cells were grown on different carbon sources depending on the experiment. […] The loaded filter was transferred to a scintillation vial containing 3 mL liquid scintillation cocktail (Ultima-Flo M, Perkin Elmer) and counted using the Hidex 300 SL. […]
# wild type yeast cells = assay: Growth of wild type yeast (general toxicity); type: cell-based, S. cerevisiae; settings: 100 µM; 110 mM glucose medium and 325 mM glycerol + 430 mM ethanol medium
# Experimental: Growth curves were made by measuring OD595 in a 96-well plate using the Multiskan™ FC Microplate Photometer (Thermo Fisher Scientific). Typically, for tps1Δ rescue experiments, cells were (pre)grown in Complete Synthetic medium containing 110 mM galactose. Compounds were always added 10 min prior to glucose addition to ensure maximal interaction between the cells and compounds. Cells originating from the preculture were harvested, washed in medium without sugar, after which they were resuspended to an OD of 0.1 in 200 µL of the appropriate medium. At least three technical replicates were included per condition. OD595 was measured at 30°C every 30 min with a 10-min shaking interval.
# [2] = system: hxk2Δ hxk1Δ glk1Δ yeast cells; assay: Glucose uptake in hxk2Δ hxk1Δ glk1Δ yeast cells; type: cell-based, S. cerevisiae; settings: strain lacking glucose phosphorylation
# Experimental: Zero-trans uptake of radioactively labeled [U-^14C]glucose, [U-^14C]fructose or [U-^14C]galactose by S. cerevisiae cells was determined in accordance with previous studies ([45], [75]). Cells were grown on different carbon sources depending on the experiment. For measuring glucose uptake activity in the tps1Δ and tps1Δ hxtΔ strains, cells were grown on YP medium containing 325 mM glycerol (measurement of 10 s). Typically, for compound characterization and kinetic studies in wild type and tps1Δ strains, cells were (pre)grown on Complete Synthetic medium supplemented with 110 mM galactose (measurement of 10 s). In the experiments on the influence of hexokinase activity on the sugar uptake rate, the measurement duration was shortened to 5 s and cells were always grown on YP medium containing 325 mM glycerol and 430 mM ethanol. After harvesting, cells were washed twice with ice-cold 25 mM MES-buffer pH 6, and resuspended in their respective medium without sugar to a final concentration of 45 mg (wet weight)/mL. The amount of added tracer was estimated to give a response close to at least 1000 counts per min in order to adequately counter background noise. […] The loaded filter was transferred to a scintillation vial containing 3 mL liquid scintillation cocktail (Ultima-Flo M, Perkin Elmer) and counted using the Hidex 300 SL. […]
# T1 sequence (P39004 whole entry): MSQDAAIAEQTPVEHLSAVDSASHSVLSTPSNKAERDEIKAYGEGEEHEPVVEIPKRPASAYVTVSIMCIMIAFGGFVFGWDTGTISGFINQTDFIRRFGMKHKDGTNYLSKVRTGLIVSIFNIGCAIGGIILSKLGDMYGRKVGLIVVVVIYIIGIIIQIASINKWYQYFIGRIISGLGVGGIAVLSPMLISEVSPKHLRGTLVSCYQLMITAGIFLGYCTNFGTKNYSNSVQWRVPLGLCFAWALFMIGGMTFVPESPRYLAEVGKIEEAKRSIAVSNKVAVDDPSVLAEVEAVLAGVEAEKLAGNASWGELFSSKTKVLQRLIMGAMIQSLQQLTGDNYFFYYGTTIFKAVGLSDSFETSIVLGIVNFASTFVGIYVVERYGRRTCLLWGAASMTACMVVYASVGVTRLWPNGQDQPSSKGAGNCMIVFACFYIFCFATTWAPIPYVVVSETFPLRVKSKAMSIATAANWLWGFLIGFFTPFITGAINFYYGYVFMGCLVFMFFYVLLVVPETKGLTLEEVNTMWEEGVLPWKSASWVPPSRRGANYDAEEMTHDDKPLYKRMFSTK
SMILES,inhibition of glucose consumption and lactate production [1],abnormalities / toxic effects in liver and other organs at autopsy (female NMRI-nu mice; 20 days),"adipose tissue at autopsy (female NMRI-nu mice; nude mice, daily i.p., 5, 10 and 20 mg/kg, 20 days, visual inspection vs vehicle)","loss in body weight (female NMRI-nu mice; nude mice, 20 days)",AST/ALT ratio vs vehicle (female NMRI-nu mice),blood glucose level vs vehicle (female NMRI-nu mice),inhibition of 2.5 mM glucose uptake by Hxt7 (yeast Hxt7),growth inhibition of wild type yeast (wild type yeast cells),1 mM glucose uptake rate [2]
Cc1nc(SCC(=O)c2ccc3c(c2)NC(=O)CO3)c2c(-c3cccs3)csc2n1 [WBC-11C],inhibited glucose consumption and lactate production,toxic effects were seen in the liver and other organs,adipose tissue was also observed in between the intestines,small transient drop,No significant difference,No significant difference,–,–,–
Cc1nc(Sc2nnc3n2CCCCC3)c2c(-c3cccs3)csc2n1 [WBC-A],did not cause inhibition,No other abnormalities,–,no significant loss in body weight,No significant difference,No significant difference,inhibited glucose uptake both by Hxt7 and GLUT1^V69M,did not cause any growth inhibition at all,little further inhibition
